The target of the assay is T1, CFTR (F508del/MF-HBE cells) (Homo sapiens, UniProt P13569, DEL508-508).
T1 construct: human bronchial epithelial (HBE) cells derived from CF subjects heterozygous for F508del and a minimal function CFTR mutation; endogenous in cells; host or cells: primary human bronchial epithelial cells from CF subjects (F508del/MF genotype)
The assay is described as follows: Ussing chamber assay of CFTR-mediated short-circuit currents (identification of potentiator compounds). It is filed as cell-based. Particulars: CFTR-mediated ISC in F508del/MF-HBE cells; incubated 18-24 hours at 37° C. with 10 μM (14S)-8-[3-(2-{dispiro[2.0.2.1]heptan-7-yl}ethoxy)-1H-pyrazol-1-yl]-...-2,2,4-trione, 20% human serum. The protocol: Ussing Chamber Assay of CFTR-Mediated Short-Circuit Currents
Ussing chamber experiments were performed using human bronchial epithelial (HBE) cells derived from CF subjects heterozygous for F508del and a minimal function CFTR mutation (F508del/MF-HBE) and cultured as previously described (Neuberger T, Burton B, Clark H, Van Goor F Methods Mol Biol 2011:741:39-54). After four days the apical media was removed, and the cells were grown at an air liquid interface for >14 days prior to use.
To isolate the CFTR-mediated short-circuit (ISC) current, F508del/MF-HBE grown on Costar® Snapwell™ cell culture inserts were mounted in an Ussing chamber and the transepithelial ISC was measured under voltage-clamp recording conditions (Vhold=0 mV) at 37° C. The basolateral solution contained (in mM) 145 NaCl, 0.83 K2HPO4, 3.3 KH2PO4, 1.2 MgCl2, 1.2 CaCl2), 10 Glucose, 10 HEPES (pH adjusted to 7.4 with NaOH) and the apical solution contained (in mM) 145 NaGluconate, 1.2 MgCl2, 1.2 CaCl2), 10 glucose, 10 HEPES (pH adjusted to 7.4 with NaOH) and 30 μM amiloride to block the epithelial sodium channel. Forskolin (20 μM) was added to the apical surface to activate CFTR, followed by apical addition of a CFTR inhibitor cocktail consisting of BPO, GlyH-101 and CFTR inhibitor 172 (each at 20 μM final assay concentration) to specifically isolate CFTR currents. The CFTR-mediated ISC (μA/cm^2) for each condition was determined from the peak forskolin response to the steady-state current following inhibition.
Identification of Potentiator Compounds
The activity of the CFTR potentiator compounds on the CFTR-mediated ISC was determined in Ussing chamber studies as described above. The F508del/MF-HBE cell cultures were incubated with the potentiator compounds at a range of concentrations in combination with 10 μM (14S)-8-[3-(2-{dispiro[2.0.2.1]heptan-7-yl}ethoxy)-1H-pyrazol-1-yl]-12,12-dimethyl-2λ^6-thia-3,9,11,18,23-pentaazatetracyclo [17.3.1.111,14.05,10]tetracosa-1(22),5,7,9,19(23),20-hexaene-2,2,4-trione for 18-24 hours at 37° C. and in the presence of 20% human serum. The concentration of potentiator compounds and (14S)-8-[3-(2-{dispiro[2.0.2.1]heptan-7-yl}ethoxy)-1H-pyrazol-1-yl]-12,12-dimethyl-2λ^6-thia-3,9,11,18,23-pentaazatetracyclo [17.3.1.111,14.05,10]tetracosa-1(22),5,7,9,19(23),20-hexaene-2,2,4-trione used during the 18-24 hours incubations was kept constant throughout the Ussing chamber measurement of the CFTR-mediated ISC to ensure compounds were present throughout the entire experiment. The efficacy and potency of the putative F508del potentiators was compared to that of the known Vertex potentiator, ivacaftor (N-[2,4-bis(1,1-dimethylethyl)-5-hydroxyphenyl]-1,4-dihydro-4-oxoquinoline-3-carboxamide).

T1 sequence (P13569 with tags, fused parts or gaps DEL508-508): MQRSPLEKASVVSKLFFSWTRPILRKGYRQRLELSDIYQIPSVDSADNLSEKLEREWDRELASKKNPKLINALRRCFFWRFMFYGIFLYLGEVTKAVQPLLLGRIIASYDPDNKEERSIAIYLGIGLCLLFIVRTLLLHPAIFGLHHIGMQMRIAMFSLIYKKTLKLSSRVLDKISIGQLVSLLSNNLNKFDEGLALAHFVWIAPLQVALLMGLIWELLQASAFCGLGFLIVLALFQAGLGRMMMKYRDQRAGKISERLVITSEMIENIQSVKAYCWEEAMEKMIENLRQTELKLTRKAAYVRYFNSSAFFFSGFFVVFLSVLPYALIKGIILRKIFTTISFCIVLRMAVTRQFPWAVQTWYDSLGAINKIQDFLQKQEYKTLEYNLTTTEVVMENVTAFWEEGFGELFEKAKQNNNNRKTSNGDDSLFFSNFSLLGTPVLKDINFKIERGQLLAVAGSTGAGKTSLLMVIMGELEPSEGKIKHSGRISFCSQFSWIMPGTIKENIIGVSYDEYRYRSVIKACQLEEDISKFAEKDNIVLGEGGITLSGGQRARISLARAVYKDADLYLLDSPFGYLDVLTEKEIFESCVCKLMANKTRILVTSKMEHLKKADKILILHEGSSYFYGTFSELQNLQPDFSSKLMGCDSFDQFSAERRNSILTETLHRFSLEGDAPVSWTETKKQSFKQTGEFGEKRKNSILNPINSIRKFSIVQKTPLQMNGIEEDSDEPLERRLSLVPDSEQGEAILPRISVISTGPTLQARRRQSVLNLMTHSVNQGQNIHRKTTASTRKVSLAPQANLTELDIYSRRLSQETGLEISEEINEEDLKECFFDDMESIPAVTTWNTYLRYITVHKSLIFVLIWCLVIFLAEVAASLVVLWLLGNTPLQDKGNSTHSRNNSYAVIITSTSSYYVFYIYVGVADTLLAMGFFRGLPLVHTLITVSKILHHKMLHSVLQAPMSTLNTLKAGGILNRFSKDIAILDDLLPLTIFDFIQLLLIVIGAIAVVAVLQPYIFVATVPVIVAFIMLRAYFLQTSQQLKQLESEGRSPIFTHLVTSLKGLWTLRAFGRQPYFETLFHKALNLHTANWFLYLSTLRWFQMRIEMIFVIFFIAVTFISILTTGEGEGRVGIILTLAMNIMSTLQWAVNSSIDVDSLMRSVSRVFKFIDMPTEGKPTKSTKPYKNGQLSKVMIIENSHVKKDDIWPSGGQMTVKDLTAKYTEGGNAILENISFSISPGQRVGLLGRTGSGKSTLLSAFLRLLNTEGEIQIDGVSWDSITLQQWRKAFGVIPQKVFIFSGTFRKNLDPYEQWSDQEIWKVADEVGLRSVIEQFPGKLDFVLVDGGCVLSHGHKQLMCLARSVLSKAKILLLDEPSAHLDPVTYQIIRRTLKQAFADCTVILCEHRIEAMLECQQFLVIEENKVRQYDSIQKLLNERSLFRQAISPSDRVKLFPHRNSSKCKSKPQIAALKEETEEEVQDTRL

What is called EC50 is the midpoint of the concentration-response curve. As to `CN1CCCCCCC(O)(C(F)(F)F)C2=NN=C(O2)c2nc1c(C(F)(F)F)cc2N` (single isomer, unassigned) [Compound 20, 17-amino-13-methyl-6,15-bis(trifluoromethyl)-19-oxa-3,4,13,18-tetrazatricyclo[12.3.1.12,5]nonadeca-1(18),2,4,14,16-pentaen-6-ol], the EC50 was in the range of 0.5 to 1 µM. The value for `Nc1cc(C(F)(F)F)c2nc1-c1nnc(o1)C(O)CCCCC[C@@H]1CCCN21` (single isomer, unassigned) [Compound 21] was less than 0.5 µM. As to `Nc1cc(C(F)(F)F)c2nc1-c1nnc(o1)C(O)(C(F)(F)F)CCCCCCC1CCCN21` (single isomer, unassigned) [Compound 23, 21-amino-6,19-bis(trifluoromethyl)-23-oxa-3,4,17,22-tetraazatetracyclo[16.3.1.12,5.013,17]tricosa-1(22),2,4,18,20-pentaen-6-ol], the EC50 was less than 0.5 µM.

Take `Nc1cc(C(F)(F)F)c2nc1-c1nnc(o1)C(O)(C(F)(F)F)CCCCCCC1CCCN21` (single isomer, unassigned) [Compound 24, 21-amino-6,19-bis(trifluoromethyl)-23-oxa-3,4,17,22-tetraazatetracyclo[16.3.1.12,5.013,17]tricosa-1(22),2,4,18,20-pentaen-6-ol]: the EC50 is less than 0.5 µM. The value for `Nc1cc(C(F)(F)F)c2nc1-c1nnc(o1)C(O)(C(F)(F)F)CCCCCCC1CCCN21` (single isomer, unassigned) [Compound 25, 21-amino-6,19-bis(trifluoromethyl)-23-oxa-3,4,17,22-tetraazatetracyclo[16.3.1.12,5.013,17]tricosa-1(22),2,4,18,20-pentaen-6-ol] was less than 0.5 µM.

Consider `Nc1cc(C(F)(F)F)c2nc1-c1nnc(o1)C(O)(C(F)(F)F)CCCCCCC1CCCN21` (single isomer, unassigned) [Compound 26, 21-amino-6,19-bis(trifluoromethyl)-23-oxa-3,4,17,22-tetraazatetracyclo[16.3.1.12,5.013,17]tricosa-1(22),2,4,18,20-pentaen-6-ol], for which the EC50 is greater than 1 µM. The value for `CC1(C)CC2CCCCCC(O)(C(F)(F)F)C3=NN=C(O3)c3nc(c(C(F)(F)F)cc3N)N2C1` (single isomer, unassigned) [Compound 29, 20-amino-14,14-dimethyl-6,18-bis(trifluoromethyl)-22-oxa-3,4,16,21-tetraazatetracyclo[15.3.1.12,5.012,16]docosa-1(21),2,4,17,19-pentaen-6-ol] was less than 0.5 µM; that for `Nc1cc(C(F)(F)F)c2nc1-c1nnc(o1)C(O)(C(F)(F)F)CCCC[C@@H]1CCCN21` (single isomer, unassigned) [Compound 32] was less than 0.5 µM. The value for `Nc1cc(C(F)(F)F)c2nc1-c1nnc(o1)C(O)(C(F)(F)F)CCCC[C@@H]1CCCN21` (single isomer, unassigned) [Compound 33] was greater than 1 µM; that for `COCCN1CCCCCCC(O)(C(F)(F)F)C2=NN=C(O2)c2nc1c(C(F)(F)F)cc2N` (single isomer, unassigned) [Compound 34, 17-amino-13-(2-methoxyethyl)-6,15-bis(trifluoromethyl)-19-oxa-3,4,13,18-tetrazatricyclo[12.3.1.12,5]nonadeca-1(18),2,4,14,16-pentaen-6-ol] was less than 0.5 µM; that for `COCCN1CCCCCCC(O)(C(F)(F)F)C2=NN=C(O2)c2nc1c(C(F)(F)F)cc2N` (single isomer, unassigned) [Compound 35, 17-amino-13-(2-methoxyethyl)-6,15-bis(trifluoromethyl)-19-oxa-3,4,13,18-tetrazatricyclo[12.3.1.12,5]nonadeca-1(18),2,4,14,16-pentaen-6-ol] was greater than 1 µM. The result for `Nc1cc(C(F)(F)F)c2nc1-c1nnc(o1)C(O)(C(F)(F)F)CCCC(=O)N1CCN2CC1` (single isomer, unassigned) [Compound 37, 5-amino-11-hydroxy-3,11-bis(trifluoromethyl)-21-oxa-1,8,9,16,22-pentaazatetracyclo[14.2.2.12,6.17,10]docosa-2,4,6(22),7,9-pentaen-15-one] reads less than 0.5 µM.
